Experimental data reported in patent US10500142B2, “Oral care compositions” (COLGATE-PALMOLIVE COMPANY, priority 2015, dated 2019).

What was measured:
[1] = Solution preparation: clarity / dissolution of SnF2 with TSPP or TKPP in water; type: physicochemical; settings: 2% SnF2 in water with TSPP or TKPP; as prepared
Method: The solutions are prepared by first dissolving TSPP or TKPP in water (mixing under high heat if necessary) and then adding a 20% stannous fluoride solution to the clear solution with an automatic pipet. […] All of the solutions contain 2% SnF2.

[2] = SnCl2.2H2O/pyrophosphate solutions: appearance on preparation and aging at room temperature; type: physicochemical; settings: 3% SnCl2.2H2O; aged overnight at room temperature
Method: Solutions are prepared by dissolving TSPP in deionized water (mixing under heat if necessary) and then adding 0.6 g of SnCl2.2H2O to make 20-gram solutions.
The solutions with a P/Sn molar ratio spanning from 0.5 to 5 containing 3% SnCl2.2H2O are aged overnight at room temperature. A 3% SnCl2.2H2O solution is used as a control.
Solutions are prepared by dissolving TKPP in deionized water (mixing under heat if necessary) and then adding 0.6 g SnCl2.2H2O to make 20-g solutions.

Compound | appearance / dissolution of the solution on preparation [1] | appearance after aging overnight [2]
[F][Sn][F] [2% stannous fluoride solution, stannous fluoride] | precipitate almost immediately after dissolution | 
O.O.[Cl][Sn][Cl] [3% SnCl2.2H2O solution, SnCl2.2H2O] |  | cloudy precipitate that settles
